The nature of data set [1]: Comparative stability of amorphous ditartrate and crystalline fumarate, powder form, HPLC analysis. The data set is classed as physicochemical. The conditions noted are these: for degradation in powder form: 14 days. Here is the method:
Comparative stability of amorphous ditartrate and crystalline fumarate:
1. Raw material: • Batch OP3.0B: amorphous vinflunine ditartrate. • Batch JLM4008400: crystalline vinflunine fumarate.
(§1) 2. Stability conditions: • Stability studies are carried out on the powder form away from light under the following conditions: • closed bottle: 50° C., • open bottle: 40° C., 75% relative humidity. • A measurement is taken at T0 and at T0+14 days.
3. Analytical conditions: • HPLC system: • Column: Sunfire C18, 5 μm, 4.6×250 mm (Waters) temperature maintained at 35° C. • Eluent: CH3CN/MeOH/H2O/KH2PO4 400/150/450/6.8 (ml/ml/ml/g) adjusted to pH 7 (with KOH). • Flow rate: 1 ml/min • Detection: 269 nm

Data set [2] in a line: Water content of the powder in the comparative stability study. The data set is classed as physicochemical. Here is the method:
as §1

The mark [3] stands for this setting: T0 + 14 d, 40° C., 75% RH, open bottle, powder away from light.
[4] abbreviates: T0 + 14 d, 50° C., closed bottle, powder away from light.
Where [5] appears, read: in the presence of moisture (40° C., 75% RH).
The mark [6] stands for this setting: T0 + 14 d, 40° C., 75% RH, open bottle.

Take vinflunine ditartrate [OP3.OB]: the figures for the “degradation in powder form” value in data set [1] (50° C. (closed bottle)) and in data set [1] (setting [5]) were 2.1% and 1.07%, respectively. Also, the HPLC analysis in data set [1] (setting [3]) was determined as 98.21%; in data set [1] (setting [4]) it was 97.18%; in data set [1] (T0, powder, before storage), 99.28%. In addition, the Water content in data set [2] (T0) was 6.27%; in data set [2] (setting [6]), 10.18%.
Regarding vinflunine fumarate [JLM4008400], the “degradation in powder form” value in data set [1] (50° C. (closed bottle)) and in data set [1] (setting [5]) was “less than 0.2%” in each case. Besides, the HPLC analysis in data set [1] (setting [3]) is given as 99.38%; in data set [1] (setting [4]) it was 99.56%; in data set [1] (T0, powder, before storage), 99.52%. In addition, the Water content is on record as 1.33% in data set [2] (T0) and 4.18% in data set [2] (setting [6]).
